Experimental data as given in US20040006043A1, “Methods, pharmaceutical compositions and pharmaceutical kits for enhancing the therapeutic efficiency of cancer chemotherapeutic agents” (RAMOT UNIVERSITY AUTHORITY FOR APPLIED RESEARCH & …, priority 2002, published 2004).

Experiments:
C6 cells = settings: doxorubicin efflux, absence of a chemosensitizer
Description: Cells were grown in monolayers as described above. Several days prior to an experiment the cells (at a density in the range of 5×10^4-5×10^5 cells/ml) were seeded into 6 multiwell culture plates. The experiments were performed when the cells reached confluency.
At the end of the incubation the media was removed and the cells were incubated with “drug free media”, which consisted of either buffer alone, for cells loaded with drug only, or buffer that contained the chemosensitizer used at the same dose as in the incubation, for the cells loaded with the drug and the chemosensitizer. This replacement of the loading with the “drug free media” was performed in order to create the driving force for drug efflux from the cell into that external media. At designated periods (time points), the external media was collected and thereafter replaced by fresh “drug free media”, in order to maintain a unidirectional flux, from the cell out. The drug concentration was measured in each of the collected media, and in the cells at the end of the experiment.

C26 cells = assay: Survival of BALB/c mice inoculated with C26 tumor cells; format: in vivo; settings: C26 cells in right-hind foot pad
Description: BALB/c mice, female, 8 weeks old at the initiation of experiments were tested. Experiments were performed with 35 mice that were divided into 5 groups.
Mitomycin C (MMC), injection dose of 10 mg/Kg body.
C26 cells (originating from mouse colon carcinoma) were grown in cell culture flask essentially as described above under the in vitro experiments. At day 0 of the experiment, the cells were harvested, washed several times with PBS and at the final wash with Hank's buffer, counted and immediately injected subcutaneously into the right-hind foot pad of the mice. The injected dose was 5×10^5 cells/30 μl.
Saline and the chemotherapeutic formulations were administered on days 5, 12 and 19 of the experiment, by injection into the tail vein. All the injected volumes were 0.1 ml. Lithium, at 1 mM, was given in the drinking water continuously throughout the experiment, from the day of tumor inoculation.
35 mice, inoculated with tumor cells, were divides into groups and each group received a different treatment, as described hereinabove and is presented in Table 2 above. The animal survival was monitored continuously, from the first day of tumor inoculation.
FIG. 8 presents the animal survival, expressed in percentages of the total number of animals in the group.

[1] = Lithium 1 mM; cited from earlier work

COc1cccc2c1C(=O)c1c(O)c3c(c(O)c1C2=O)C[C@@](O)(C(=O)CO)C[C@@H]3O[C@H]1C[C@H](N)[C@H](O)[C@H](C)O1 [F-DOX, doxorubicin]
fraction of total intracellular drug load diffused out of the cell after 5 minutes (C6 cells): about 30% | time for complete depletion of the cell from the drug (C6 cells): ≤ 3 h

CO[C@@]12[C@H](COC(N)=O)C3=C(C(=O)C(C)=C(N)C3=O)N1C[C@@H]1N[C@@H]12 [Free MMC, Mitomycin C]
day on which all animals were dead (C26 cells; MMC 10 mg/Kg i.v. on days 5, 12, 19): 33 days | day on which animals started dying (C26 cells; MMC 10 mg/Kg i.v. on days 5, 12, 19, Lithium 1 mM in drinking water where given): 29 days

[Li] [Lithium]
in vivo safety of the in vitro dose [1]: within the in vivo safe range
